Data on 3 compounds can be found in patent US8431554B2, “Compound showing anti-inflammatory activity and antiviral activity, pharmaceutical compositions comprising the same, a process for obtaining the same and use of the same in the treatment of epidemic keratoconjunctivites and herpetic stromal keratis” (priority 2007, dated 2013).

Molecules are shown by their SMILES.

Data set [1] has as its system strain KOS of HSV-1 (herpetic stromal keratitis). Put plainly: Murine model of herpetic stromal keratitis (HK) induced by HSV-1. Type of data set: in vivo, mice. Particulars: for incidence of HK upon completion of the period of disease / severity of lesions versus non-treated infected mice / incidence of HK (mice with signs of keratitis): treated days 1, 2, 3 p.i.; for incidence of HK upon completion of the period of disease / incidence of HK (mice with signs of keratitis): FIG. 1A; for severity of lesions versus non-treated infected mice: FIG. 1B. As for the experimental part:
To determine if the treatment with compound I, after viral inoculation, affected the signs of HK, male mice of 6-8 weeks were anesthetized with ketamine/xylazine intraperitoneally and infected with the strain KOS of HSV-1 in the right corneas, previously scrapped with a needle. One group of animals was treated with buffered saline solution (PBS) (control of disease), while the rest were treated topically with a concentration of 40 μM of compound I three times a day. Also, groups of animals to control the antiviral activity of aciclovir (ACV) and anti-inflammatory activity of dexamethasone (DEX) were included, both drugs were commercially available.
It was determined the incidence of the disease as well as the degree of severity of the lesions and evolution of HK was determined under a magnifying glass during 15 days. The diagnosis of the disease is based on the density of inflammatory infiltrates, lengthening of vessels with corneal invasion (neovascularization), and the presence of surface ulcers. Therefore, mice presenting swollen eyelids (blepharitis), neovascularization in more than 10% of the corneal surface, and corneal opacity with or without signs of necrosis, were considered sick of HK.
The signs of ocular signs are gradually developed from the days 6-7 post-infection (p.i.) and the percentage of animals with HK and severity of the signs of the disease on days 3, 8, and 15 p.i were recorded (FIG. 1 y 2).
To evaluate the antiviral activity of compound I, the compound was applied to a group of animals on days 1, 2 y 3 p.i., the days when multiplication of HSV-1 in the cornea occurs. Also, other groups of mice were treated with ACV—as a positive control of antiviral activity—and with DEX.
To evaluate the anti-inflammatory activity of compound I, the compound was applied on days 6, 7 and 8 p.i., the time when HK manifests.

For data set [2], the system named is alpha-TNF production in macrophages J774. The data set is described as follows: Inhibition of alpha-TNF production in LPS-treated J774 macrophages. Type of data set: cell-based. Particulars: different concentrations. The text has this: Also, compound I has anti-inflammatory activity.
Also, said compound II has anti-inflammatory activity.

The next data set has as its system strain KOS of HSV-1. Put plainly: Anti-HSV-1 activity, virus yield in infected IOBA-NHC cells titrated in Vero cells. It counts as cell-based. Particulars: for EC50: Human alphaherpesvirus 1, Vero, HSV-1 KOS, m.i. 0.2, IOBA-NHC cells, 24 h, read-out: CE50 (Effective concentration 50); for IS, Selectivity index (CC50/CE50): anti-HSV-1, IOBA-NHC cells. As for the experimental part:
To evaluate the antiviral activity of the compounds I and II, monolayers of cells IOBA-NHC grown in microplates of 24 wells were infected with the strain KOS of HSV-1 at a multiplicity of infection (m.i.) of 0.2, and treated with different concentrations of the compounds. Infected cells not treated were used as control of the infection. After incubating at 37° C. during 24 h, the free and cell associated virus was harvested and titrated in Vero cells by plating in semisolid medium. It was observed an inhibition of dose-dependent viral replication in the cells treated with the compounds I and II (Table 1).

The next data set deals with mice. The data set is described as follows: Toxicity assay in vivo. The note with it: 40 μM, three times a day, three consecutive days. As for the experimental part:
A toxicity assay in vivo was performed.

The subject of a further data set is adenovirus (ADV-5). Put plainly: Antiviral activity against adenovirus in infected IOBA-NHC cultures. It counts as cell-based. Particulars: ADV-5, IOBA-NHC; for viral activity (used for selectivity index): multiplicity of infection of 1; for inhibition of adenovirus replication, in words: multiplicity of infection of 1, different concentrations.
Data set [3] is described as follows: Cytotoxicity, colorimetric MTT assay in IOBA-NHC cells. Type of data set: cell-based. Particulars: human, IOBA-NHC human conjunctival cells, confluent monolayers, 24 hours at 37° C., read-out: CC50 (Cytotoxyc concentration 50). The protocol: The activity anti-HSV-1 of the compounds I and II was evaluated in human conjunctive cells (IOBA-NHC). First, it was determined cytotoxicity of the same for cells IOBA-NHC using the colorimetric assay with MTT, based on the cleavage of the tetrazolium salt MTT (3-(4,5-dimethylthiazol-2-yl)-2,5-diphenyl tetrazolium […]) by the mitochondrial enzyme succinate dehydrogenase, to obtain a blue product, formazan (Denizot F, Lang R. Rapid colorimetric assay for cell growth and survival. Journal of Immunological Methods 1986; 89:271-77). The compounds dissolved in ethanol are added to confluent monolayers of cells IOBA-NHC grown in microplates of 96 wells, in concentrations of up to 600 μM, according to the compound. The ethanol concentration was lower than 1%. After 24 hours of incubation at 37° C., the absorbency of each well was read at 570 nm, with a reference wave length of 630 nm. It was determined the 50% cytotoxyc concentration (CC50) as the concentration of compound that reduces absorbency to 50% in relation with the control not treated (Table 1).
(In general: Tetrazolium dyes change colour on reduction, which living cells bring about.)

Data set [4] can be described thus: Cytotoxicity used for the adenovirus selectivity index. It counts as cell-based. Particulars: human; IOBA-NHC. As for the experimental part: The antiviral selectivity index of Compound I for adenovirus is of 31.6. Said index was determined as a quotient between its viral activity (=63.2) and its cytotoxicity (=2).
The antiviral selectivity index of Compound II for adenovirus is of […] Said index was determined as a quotient between its viral activity (=62.6) and its cytotoxicity (=4).

For data set [5], the system named is strain KOS of HSV-1 (herpetic stromal keratitis). Put plainly: Murine model of herpetic stromal keratitis (HK) induced by HSV-1. Type of data set: in vivo, mice. The note with it: treated days 6, 7, 8 p.i.; read on day 10 p.i.; FIG. 2A.
[6] abbreviates: treated days 6, 7, 8 p.i., FIG. 2A.

Consider `Nc1nc2c(ncn2COCCO)c(=O)[nH]1` [ACV, aciclovir, reference compound], for which, in data set [1], the “incidence of HK upon completion of the period of disease” value came to 30% and the “severity of lesions versus non-treated infected mice” value is reported as “significant differences”. Further, in data set [1] (read on day 8 p.i.), the “incidence of HK (mice with signs of keratitis)” value is on record as 10%. In addition, in data set [1] (setting [6]), the “HK signs, in words” value is on record as “had no effect on the improvement of disease signs”.

In the case of `CC[C@@H](C(C)C)[C@H](O)[C@@H](O)[C@@H](C)[C@H]1CC[C@H]2[C@@H]3CCC4=CC(=O)CC[C@]4(C)[C@H]3CC[C@]12C` [Compound I, (22S,23S)-22,23-dihydroxystigmast-4-en-3-one], the “inhibition of alpha-TNF production, in words” value in data set [2] was “inhibits production of alpha-TNF”. In the data set on strain KOS of HSV-1, the EC50 was 5.4 µM and the “IS, Selectivity index (CC50/CE50)” value is listed as 13.2. The “toxic effects in vivo” value in the data set with mice is reported as “absence of toxic effects”. In data set [1], the “incidence of HK upon completion of the period of disease” value is on record as 40% and the “severity of lesions versus non-treated infected mice” value is reported as “significant differences”. Also, the “incidence of HK (mice with signs of keratitis)” value in data set [1] (read on day 8 p.i.) came out at 30%. Besides, the “HK signs, in words” value in data set [1] (setting [6]) is reported as “reduced significantly”. The “severity of the signs of keratitis versus infection control” value in data set [1] (treated days 6, 7, 8 p.i., FIG. 2B) is given as “lower”. In data set [1] (treated days 6, 7, 8 p.i., read on day 8 p.i., FIG. 2A), the “mice with signs of the disease (HK)” value amounted to 30%. Moreover, in the data set on adenovirus (ADV-5), the “antiviral selectivity index for adenovirus” value was found to be 31.6; the “viral activity (used for selectivity index)” value is 63.2; the “inhibition of adenovirus replication, in words” value is recorded as “inhibits virus replication according to the concentration of compound used”. Moreover, the CC50 at 24 h in data set [3] worked out at 71.2 µM. This compound registered a cytotoxicity in data set [4] of 2. Moreover, the “mice with signs of the disease (HK)” value in data set [5] worked out at 40%.

In the case of `CC[C@@H](C(C)C)[C@H](O)[C@@H](O)[C@@H](C)[C@H]1CC[C@H]2[C@@H]3CCC4=CC(=O)C=C[C@]4(C)[C@H]3CC[C@]12C` [Compound II, (22S,23S)-22,23-dihydroxystigmasta-1,4-dien-3-one], the “inhibition of alpha-TNF production, in words” value in data set [2] is “inhibits production of alpha-TNF”. In addition, in the data set with strain KOS of HSV-1, the EC50 stood at 17.9 µM and the “IS, Selectivity index (CC50/CE50)” value was 3.9. For the same compound, in the data set on adenovirus (ADV-5), the “antiviral selectivity index for adenovirus” value worked out at 15.67; the “viral activity (used for selectivity index)” value is 62.6; the “inhibition of adenovirus replication, in words” value was “inhibits virus replication according to the concentration of compound used”. Moreover, the CC50 at 24 h in data set [3] worked out at 70.8 µM. This compound came in with a cytotoxicity in data set [4] of 4.
